Measurements as given in patent US20130231311A1, “NOVEL FORMULATIONS FOR TREATMENT OF MIGRAINE” (ZOGENIX, INC., priority 2008, published 2013).
“And” between values parts separate entries of the source, which are not always exact repeats. Identical values can stand only once. Like-named read-outs stand apart in the source and are kept apart here. One block for each compound: values may come before it.

Experiments:
[1] = in vivo; cited from earlier work
[2] = tested on: migraine; conditions: cited from earlier work
[3] = time to peak plasma concentration of triptans (FIG. 3); conditions: in vivo
[4] = pharmacokinetic parameters of injected versus oral sumatriptan (FIG. 2); format: in vivo; conditions: injected vs oral; injected dose is 3% of the oral dose
Text: (§1) FIG. 2 is a Table comparing pharmacokinetic and pharmacodynamic parameters of subcutaneously injected and oral sumatriptan.
(§2) FIG. 2 compares pharmacokinetic parameters of injected sumatriptan with oral sumatriptan.

[5] = tested on: migraine; test: pain relief at 2 hours, injected versus oral sumatriptan (FIG. 2); format: in vivo; conditions: via injection, 107 minutes after maximum plasma concentration
Text: as §1, §2

[6] = tested on: migraine; conditions: in vivo; cited from earlier work

SMILES: CN(C)CCc1c[nH]c2ccc(CS(=O)(=O)N3CCCC3)cc12 [almotriptan]
- half life [1]: 3 to 4 h

SMILES: O=C(O)Cc1ccccc1Nc1c(Cl)cccc1Cl [diclofenac]
- effectiveness ([2]; intramuscular): 70% and 88%
- effectiveness ([2]; oral): 44%

SMILES: CN1CCC[C@@H]1Cc1c[nH]c2ccc(CCS(=O)(=O)c3ccccc3)cc12 [eletriptan]
- half life [1]: 4 h

SMILES: CN[C@@H]1CCc2[nH]c3ccc(C(N)=O)cc3c2C1 [frovatriptan]
- half life [1]: 26 h

SMILES: CNS(=O)(=O)CCc1ccc2[nH]cc(C3CCN(C)CC3)c2c1 [naratriptan]
- half life [1]: 5 to 8 h

- time to peak plasma concentration, earlier than sumatriptan and zolmitriptan [3]: ~1 h
SMILES: CN(C)CCc1c[nH]c2ccc(Cn3cncn3)cc12 [rizatriptan]
- half life [1]: 2 to 3 h

- AUC relative to oral dose [4]: about ⅕
- maximum concentration relative to oral dose [4]: approximately half
SMILES: CNS(=O)(=O)Cc1ccc2[nH]cc(CCN(C)C)c2c1 [sumatriptan]
- half life [1]: 2.5 h
- pain relief at 2 hours, injected vs oral dose [5]: better for the injected dose than for the oral dose
- pain relief at two hours compared with rizatriptan [6]: less than that of rizatriptan

SMILES: CN(C)CCc1c[nH]c2ccc(C[C@H]3COC(=O)N3)cc12 [zolmitriptan]
- half life [1]: 3 h
- pain relief at two hours compared with rizatriptan [6]: less than that of rizatriptan
